Like-named read-outs stand apart in the source and are kept apart here. Marks after values point to notes of the source that are not given here.
Assays:
[1] = target: T1, aldose reductase (AR) (Rattus norvegicus, UniProt P07943); assay: Aldose reductase (AR) inhibition assay, rat lens homogenate; format: biochemical, Sprague–Dawley rats; details: for IC50: rat lens AR homogenate
T1 construct: centrifuged at 10,000× g for 30 min at 4 °C (Centrifuge 5417R, Eppendorf, Germany) to obtain AR homogenate (in the supernatant); from tissue; host or cells: eye lenses of Sprague–Dawley rats
Description: For the extraction of AR, the rat eye lenses were grounded in a precooled mortar (−70 °C) and extracted using 0.1 M PBS (pH 6.2; about 0.5 mL of PBS per two frozen rat lenses).
A 96-well plate-based AR inhibition assay was used in this study, which was modified from a previous method. In principle, the rate of the absorbance decrease of NADPH at 340 nm (OD340 nm) was used for evaluation of the AR inhibitory activity. […] Then, as soon as 20 μL of the substrate (DL-glyceraldehyde dimer, 25 mM in 0.1 M PBS, pH 7.0) was added, the absorbance of the reaction solution at 340 nm was measured for 6 min using an Epoch microplate spectrophotometer (BioTek Instruments, Highland Park, IL, USA). […] The samples were first prepared at high concentrations in DMSO or in a mixture of DMSO and water and then diluted using water shortly before the experiment. The concentration of DMSO was kept within 0.2% (v/v) in the reaction system. […] The AR inhibition ratio (%) for the samples was calculated using Equation (4):(4) %inhibition=1−Slopes−Slopeb/Slopec−Slopeb×100%, where Slopec, Slopes, and Slopeb are the slopes obtained from the OD340 nm versus the reaction time (min) dotted lines of the control group (without sample), sample group (with enzyme and sample), and blank group (without enzyme or sample), respectively. |Slope| is the absolute value of Slope.

[2] = target: fructose-mediated bovine serum albumin (BSA) glycation (Bos taurus, UniProt P02769); assay: Antiglycation assay, fructose-mediated BSA glycation model; details: for inhibition at 12.5 µM / inhibition at 25 µM / inhibition at 50 µM / inhibition at 100 µM: read-out: Antiglycation activity, inhibition (%)
Chain of fructose-mediated bovine serum albumin (BSA) glycation (P02769 25-607): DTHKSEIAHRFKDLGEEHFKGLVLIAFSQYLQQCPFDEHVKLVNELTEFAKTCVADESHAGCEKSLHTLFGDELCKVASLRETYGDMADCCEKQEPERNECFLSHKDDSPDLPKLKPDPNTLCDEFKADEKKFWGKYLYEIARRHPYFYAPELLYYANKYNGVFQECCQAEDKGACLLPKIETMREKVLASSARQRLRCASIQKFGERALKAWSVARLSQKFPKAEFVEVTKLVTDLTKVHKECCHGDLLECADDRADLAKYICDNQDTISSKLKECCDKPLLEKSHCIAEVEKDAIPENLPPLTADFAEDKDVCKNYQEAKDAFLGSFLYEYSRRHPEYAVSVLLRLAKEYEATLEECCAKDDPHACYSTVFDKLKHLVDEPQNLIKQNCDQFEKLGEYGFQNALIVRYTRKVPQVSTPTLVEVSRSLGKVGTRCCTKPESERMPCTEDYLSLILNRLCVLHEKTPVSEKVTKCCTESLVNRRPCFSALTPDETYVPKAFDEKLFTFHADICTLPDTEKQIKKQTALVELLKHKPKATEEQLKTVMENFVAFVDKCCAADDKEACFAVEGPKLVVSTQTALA

[3] = DPPH radical scavenging assay; format: biochemical; details: Trolox equivalent antioxidant capacity
Description: (§1) The antioxidant activities of the 70% methanol extract of M. volcanica and the separated compounds were evaluated using DPPH, ABTS, and ORAC assays. The results were expressed as Trolox equivalent antioxidant capacity (TEAC, µg Trolox/µg extract or µM Trolox/µM compound), which were calculated with the equations obtained from the calibration curves of Trolox standards (final concentrations) versus their DPPH and ABTS radical inhibition (%) and the net AUC value (ORAC assay).
The DPPH radical scavenging assay was carried out using an EL800 microplate reader (Bio-Tek Instruments, Winooski, VT, USA). Briefly, 180 μL of freshly prepared DPPH solution (0.32 mM in methanol) was mixed with 20 μL of sample (dissolved in methanol, extract 250 µg/mL; compounds 62.5–1000 µM) in a 96-well plate. The mixture was incubated for 20 min in the dark at 25 °C, and then, the absorbance was measured at […]. […] Results are expressed in µg Trolox equivalents/µg extract or µM Trolox equivalents/µM compound. The DPPH radical scavenging activity (%) is calculated using Equation (1):(1) %inhibition=1−Asample−Ablank1/Acontrol−Ablank2×100%, where Asample is the absorbance of DPPH solution with a sample, Ablank1 is the absorbance of the test sample without DPPH, Acontrol is the absorbance of DPPH solution without a sample, Ablank2 is the absorbance of methanol, without DPPH or a sample.

[4] = ABTS radical scavenging assay; format: biochemical; details: Trolox equivalent antioxidant capacity
Description: as §1
The ABTS radical scavenging assay was carried out using the same EL800 microplate reader. Briefly, 0.2 mM of ABTS diammonium salt was prepared in 3.5 mM of potassium persulfate aqueous solution, and the mixture solution was then diluted 10 times using distilled water. The diluted solution was allowed to stand for 24 h in the dark at room temperature (about 25 °C) to produce ABTS radical cations (ABTS^+). For reaction, 290 μL of ABTS^+ solution was mixed with 10 μL of sample (dissolved in methanol, extract 62.5–125 µg/mL; compounds 20–250 µM) in a 96-well plate, and the mixture solution was allowed to react for 10 min at 25 °C in the dark. Then, the absorbance was measured at 750 nm. […] Results are expressed in µg Trolox equivalents/µg extract or µM Trolox equivalents/µM compound. The ABTS radical scavenging activity (%) is calculated using Equation (1) where Asample is the absorbance of ABTS^+ solution with a sample, Ablank1 is the absorbance of the test sample without ABTS^+, Acontrol is the absorbance of ABTS^+ solution without a sample, Ablank2 is the absorbance of buffer, without ABTS^+ or a sample.

[5] = ORAC (oxygen radical absorbance capacity) assay; format: biochemical; details: Trolox equivalent antioxidant capacity, ORAC assay (peroxyl radicals)
Description: as §1
The ORAC assay was carried out using a Fluoroskan Ascent FL microplate reader (Thermo, Waltham, MA, USA) using the method described previously with minor modifications. Antioxidants can scavenge the peroxyl radicals generated by AAPH, which prevent the degradation of the fluorescein and, therefore, prevent the loss of the fluorescence of fluorescein. Briefly, fluorescein sodium salt (117 nM) and AAPH (40 mM) were freshly prepared in 0.1 M phosphate-buffered saline (PBS, pH 7.4). For reaction, 120 µL of fluorescein sodium salt (117 nM) and 20 µL of sample (dissolved in methanol, extract 10–20 µg/mL; compounds 10–160 µM) were mixed in a black 96-well plate and pre-incubated for 15 min at 37 °C. Next, 60 µL of AAPH (40 mM) was added, and the fluorescence was measured 100 times (interval 1 min) at excitation and emission wavelengths of 485 nm and 538 nm, respectively, by the microplate reader maintained at 37 °C. […] The relative ORAC values are expressed in µg Trolox equivalents/µg extract or µM Trolox equivalents/µM compound.

[6] = test system: streptozotocin-induced diabetic rats; details: cited from earlier work
[7] = cited from earlier work
[8] = test system: diabetic Octodon degus; set-up: method as in PMID 401544; details: oral administration; cited from earlier work
[9] = 6.25 µM, read-out: AR inhibition activity, inhibition (%)
[10] = 12.5 µM, read-out: AR inhibition activity, inhibition (%)
[11] = 25 µM, read-out: AR inhibition activity, inhibition (%)
[12] = 50 µM, read-out: AR inhibition activity, inhibition (%)
[13] = read-out: AR inhibition activity, inhibition (%)

inhibition at 6.25 µM [1, 9]	inhibition at 12.5 µM [1, 10]	inhibition at 25 µM [1, 11]	inhibition at 50 µM [1, 12]	SMILES	inhibition at 12.5 µM [2]	inhibition at 25 µM [2]	inhibition at 50 µM [2]	inhibition at 100 µM [2]	TEAC, DPPH [3]	TEAC, ABTS [4]	TEAC, ORAC [5]	IC50 [2]	Effect on oxidative stress [6]	further results
< 0%	0.32 ± 1.21%	5.86 ± 5.42%	7.36 ± 0.3%	O=C(O)C1=C[C@@H](O)[C@@H](O)[C@H](O)C1 [Shikimic acid (2), shikimic acid]	< 0%	< 0%	< 0%	< 0%						
8.57 ± 0.06%	14.4 ± 0.6%	27.2 ± 0.36%	53.3 ± 2.76%	O=C(O)c1ccc(O)c(Nc2cc(C(=O)O)ccc2O)c1 [4,4′-dihydroxy-3,3′-imino-di-benzoic acid]	< 0%	14.9 ± 3.87%	44.5 ± 2.54%	68.4 ± 0.92%	1.38 ± 0.05 ^d µM trolox/µM Compound	1.27 ± 0.03 ^c µM trolox/µM Compound	5.75 ± 0.26 ^b µM trolox/µM Compound	60.5 ± 2.62 µM		IC50 [1]: 47 ± 2.28 µM
				C[C@@H]1O[C@@H](Oc2c(-c3ccc(O)c(O)c3)oc3cc(O)cc(O)c3c2=O)[C@H](O)[C@H](O)[C@H]1O [Quercitrin (9), quercitrin]	32.3 ± 0.24%	75.2 ± 2.52%	89.1 ± 1.26%	94.3 ± 1.39%	0.92 ± 0.01 ^e µM trolox/µM Compound	1.07 ± 0.05 ^e µM trolox/µM Compound	5.32 ± 0.29 ^c µM trolox/µM Compound	17.6 ± 0.28 µM	ameliorate the oxidative stress	inhibition at 0.049 µM [1, 13]: 12 ± 0.82%; inhibition at 0.098 µM [1, 13]: 33.3 ± 2.17%; inhibition at 0.195 µM [1, 13]: 54.6 ± 1.78%; inhibition at 3.125 µM [1, 13]: 94.35 ± 0.3%; Inhibition of AGEs by trapping methylglyoxal [7]: inhibit AGEs by trapping methylglyoxal; Accumulation of sorbitol in the lens [8]: significantly decreased; Onset of cataract [8]: delayed
				O=C(O)c1ccc(O)c(O)c1 [Protocatechuic acid (4), protocatechuic acid]	5.26 ± 4.29%	11.4 ± 3.92%	36.1 ± 0.78%	48.4 ± 1.76%	0.72 ± 0.01 ^f µM trolox/µM Compound	0.88 ± 0.03 ^g µM trolox/µM Compound	5.79 ± 0.32 ^b µM trolox/µM Compound		ameliorate the oxidative stress	inhibition at 6.25 µM [1, 13]: 0.96 ± 2.11%; inhibition at 12.5 µM [1, 13]: 2.67 ± 2.71%; inhibition at 25 µM [1, 13]: 7.14 ± 0.6%; inhibition at 50 µM [1, 13]: 7.78 ± 1.51%
				Cl.N=C(N)NN [Aminoguanidine hydrochloride, aminoguanidine hydrochloride, reference compound]										Antiglycation activity, inhibition (%) ([2]; 1000 µM): 10.99 ± 0.07%; Antiglycation activity, inhibition (%) ([2]; 2000 µM): 44.58 ± 0.54%; Antiglycation activity, inhibition (%) ([2]; 4000 µM): 81.26 ± 0.88%; Antiglycation IC50 ([2]; fructose-mediated BSA glycation, 14 days, 37 °C): 317.36 µg/mL; IC50 ([2]; read-out: Antiglycation activity, IC50, fructose-mediated BSA glycation): 2181 ± 8.11 µM
				O=C(O)[C@H]1O[C@@H](Oc2c(-c3ccc(O)c(O)c3)oc3cc(O)cc(O)c3c2=O)[C@H](O)[C@@H](O)[C@@H]1O [Miquelianin (7), miquelianin]	24.9 ± 2.12%	49.4 ± 1.26%	78 ± 2.28%	90 ± 1.92%	1.97 ± 0.02 ^c µM trolox/µM Compound	0.99 ± 0.05 ^f µM trolox/µM Compound	5.85 ± 0.20 ^b µM trolox/µM Compound	24.5 ± 0.52 µM		IC50 [1]: 7.93 ± 0.4 µM; inhibition at 3.125 µM [1, 13]: 29.7 ± 1.21%; inhibition at 6.25 µM [1, 13]: 44.5 ± 2.11%; inhibition at 12.5 µM [1, 13]: 59.1 ± 6.86%; inhibition at 25 µM [1, 13]: 76.7 ± 1.21%

SMILES	inhibition at 6.25 µM [1, 9]	inhibition at 12.5 µM [1, 10]	inhibition at 25 µM [1, 11]	inhibition at 50 µM [1, 12]	inhibition at 12.5 µM [2]	inhibition at 25 µM [2]	inhibition at 50 µM [2]	inhibition at 100 µM [2]	TEAC, DPPH [3]	TEAC, ABTS [4]	TEAC, ORAC [5]	IC50 [2]	Effect on oxidative stress [6]	further results
O=C(O)c1cc(O)c(O)c(O)c1 [Gallic acid (3), gallic acid]	< 0%	4.16 ± 5.43%	4.16 ± 1.81%	13.5 ± 1.21%	< 0%	< 0%	3.69 ± 2.97%	8.42 ± 1.27%	3.01 ± 0.04 ^a µM trolox/µM Compound	3.35 ± 0.06 ^b µM trolox/µM Compound	1.43 ± 0.08 ^d µM trolox/µM Compound		ameliorate the oxidative stress	TEAC, DPPH ([3]; listed as gallic acid): 3.01 µM trolox/µM Compound
